Source: article PMC9496321, “6-Furopyridine Hexamethylene Amiloride Is a Non-Selective P2X7 Receptor Antagonist” (Biomolecules, 2022)

Assays:
mP2X7 = target: T1, mP2X7 (Mus musculus, UniProt Q9Z1M0); test: ATP-induced ethidium+ uptake in transfected HEK-mP2X7 cells; assay type: cell-based, murine
T1 construct: expressed in transfected cells; host or cells: HEK293 cells, transient transfection, GFP+ cells gated
T1 sequence (Q9Z1M0 1-595): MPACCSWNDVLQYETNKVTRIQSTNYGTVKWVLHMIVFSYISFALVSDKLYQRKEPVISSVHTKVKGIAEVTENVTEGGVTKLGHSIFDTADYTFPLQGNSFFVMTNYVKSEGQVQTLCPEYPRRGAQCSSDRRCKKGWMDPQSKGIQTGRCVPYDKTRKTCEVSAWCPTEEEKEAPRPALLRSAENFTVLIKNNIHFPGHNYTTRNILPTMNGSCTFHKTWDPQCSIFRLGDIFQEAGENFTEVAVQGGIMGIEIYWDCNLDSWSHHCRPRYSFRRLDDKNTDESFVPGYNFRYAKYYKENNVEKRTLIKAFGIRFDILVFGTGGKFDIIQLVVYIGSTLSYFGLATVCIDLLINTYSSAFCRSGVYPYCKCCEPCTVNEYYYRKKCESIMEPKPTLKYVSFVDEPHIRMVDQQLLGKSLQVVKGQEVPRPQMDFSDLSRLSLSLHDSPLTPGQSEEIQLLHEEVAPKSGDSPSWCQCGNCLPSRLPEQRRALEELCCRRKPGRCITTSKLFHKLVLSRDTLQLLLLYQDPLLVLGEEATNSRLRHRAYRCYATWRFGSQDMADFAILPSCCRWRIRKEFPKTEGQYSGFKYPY
Method: (§1) HEK293 cells were plated at 3.5 × 10^5 cells/well in 2 mL of complete DMEM/F12 medium and incubated (37 °C, 95% air/5% CO2, overnight). Cells were transfected with mP2X7-GFP (HEK-mP2X7), cP2X7-GFP (HEK-cP2X7) or hP2X4-EmGFP (HEK-hP2X4) plasmids, or mock transfected with an equivalent volume of sterile Milli-Q water (Merck Millipore, Burlington, NJ, USA), using Lipofectamine 3000 according to the manufacturer’s instructions. Cells were used for assays 48 h post-transfection. To determine transfection efficiency, cells were washed twice with D-PBS and data collected with an LSR Fortessa X-20 flow cytometer (BD Biosciences). The proportion of GFP positive cells was determined using FlowJo software v8.7.1 (BD Biosciences).
(§2) ATP-mediated uptake assays were conducted as described with either ethidium bromide or YO-PRO-1 iodide. Briefly, RPMI8226, HEK-hP2X7, HEK-mP2X7, HEK-cP2X7 or cryopreserved human peripheral blood mononuclear cells (PBMCs) were washed thrice with LDM (300× g, 5 min), resuspended in LDM and 1 × 10^6 cells were added to individual tubes. Cells were pre-incubated in the absence of compound (37 °C, 5 min) or in the presence of compound or vehicle (DMSO) (37 °C, 15 min) as indicated. […] An equal volume of ice-cold Mg^2+ stop solution was added and cells centrifuged (300× g, 5 min). Cells were washed twice in LDM (300× g, 5 min), resuspended and data were collected with an LSR Fortessa X-20 flow cytometer. MFI of ethidium^+ or YO-PRO-1^2+ was determined using FlowJo.

cP2X7 = target: T2, cP2X7 (Canis lupus familiaris, UniProt B0FLR1); test: ATP-induced ethidium+ uptake in transfected HEK-cP2X7 cells; assay type: cell-based, canine
T2 sequence (B0FLR1 1-595): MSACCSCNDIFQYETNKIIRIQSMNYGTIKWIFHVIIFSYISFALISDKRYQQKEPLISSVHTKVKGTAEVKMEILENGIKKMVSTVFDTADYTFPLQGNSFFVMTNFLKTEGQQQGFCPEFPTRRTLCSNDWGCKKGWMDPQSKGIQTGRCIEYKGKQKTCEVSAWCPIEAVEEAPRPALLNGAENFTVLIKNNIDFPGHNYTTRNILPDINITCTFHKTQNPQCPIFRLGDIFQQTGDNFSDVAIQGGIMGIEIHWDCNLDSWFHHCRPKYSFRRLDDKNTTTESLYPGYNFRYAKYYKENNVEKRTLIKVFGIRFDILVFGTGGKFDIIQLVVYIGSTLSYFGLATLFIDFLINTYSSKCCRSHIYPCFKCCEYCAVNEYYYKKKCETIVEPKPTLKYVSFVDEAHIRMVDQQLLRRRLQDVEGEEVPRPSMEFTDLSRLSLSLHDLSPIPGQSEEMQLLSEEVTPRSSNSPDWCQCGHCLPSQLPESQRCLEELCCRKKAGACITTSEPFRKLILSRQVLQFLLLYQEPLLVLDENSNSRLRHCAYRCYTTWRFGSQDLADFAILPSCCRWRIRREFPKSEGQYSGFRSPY
Method: as §1, §2

human uPA = system: human uPA; set-up: method as in PMID 33804289; details: cited from earlier work
P2X7 = target: T3, P2X7 (Homo sapiens, UniProt Q99572); test: ATP-induced YO-PRO-1 uptake into human T cells (PBMCs); assay type: cell-based; set-up: Human peripheral blood mononuclear cells (PBMCs) were pre-incubated with DMSO (vehicle) or 30 μM 6-FPHMA; endogenous in cells; host or cells: cryopreserved human PBMCs (CD3+, CD4+, CD8+ T cells), four donors; details: 30 μM compound, 1 mM ATP
T3 sequence (Q99572 1-595): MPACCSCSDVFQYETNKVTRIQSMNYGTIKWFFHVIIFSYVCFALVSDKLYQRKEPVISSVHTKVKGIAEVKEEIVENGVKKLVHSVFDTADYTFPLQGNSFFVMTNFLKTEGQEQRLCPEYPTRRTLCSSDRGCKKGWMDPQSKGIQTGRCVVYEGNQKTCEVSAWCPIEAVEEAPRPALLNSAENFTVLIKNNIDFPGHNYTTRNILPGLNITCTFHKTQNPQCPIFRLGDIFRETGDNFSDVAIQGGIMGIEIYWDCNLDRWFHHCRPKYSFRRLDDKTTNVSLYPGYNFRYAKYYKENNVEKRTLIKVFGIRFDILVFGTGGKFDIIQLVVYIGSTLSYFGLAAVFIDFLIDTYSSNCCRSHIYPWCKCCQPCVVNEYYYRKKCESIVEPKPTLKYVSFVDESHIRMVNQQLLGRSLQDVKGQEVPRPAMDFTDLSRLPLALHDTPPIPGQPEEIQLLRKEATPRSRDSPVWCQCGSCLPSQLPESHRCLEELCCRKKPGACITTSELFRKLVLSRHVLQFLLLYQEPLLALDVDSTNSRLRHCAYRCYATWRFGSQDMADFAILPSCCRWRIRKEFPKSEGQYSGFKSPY
Method: as §2

| SMILES | EC50 (mP2X7; GFP+ HEK-mP2X7 cells) | ATP concentration giving maximum response, ethidium+ uptake (mP2X7; HEK-mP2X7 cells) | EC50 (cP2X7) | ATP concentration giving maximum response, ethidium+ uptake (cP2X7; HEK-cP2X7 cells) | blockade of mP2X7-mediated dye uptake (mP2X7; 100 μM compound, 360 μM ATP) | activity against murine P2X7 relative to hP2X7 and cP2X7 (mP2X7; comparison of IC50 values) | IC50 (mP2X7; read-out: IC50, mP2X7-mediated dye uptake) | IC50 (cP2X7; read-out: IC50, cP2X7-mediated dye uptake) | inhibition at 30 µM (cP2X7; read-out: blockade of cP2X7-mediated dye uptake) | inhibition of human uPA (human uPA) | reduction of ATP-induced YO-PRO-1 uptake into CD3+ T cells (P2X7) | reduction of ATP-induced YO-PRO-1 uptake into CD4+ T cells (P2X7) | reduction of ATP-induced YO-PRO-1 uptake into CD8+ T cells (P2X7) |
| --- | --- | --- | --- | --- | --- | --- | --- | --- | --- | --- | --- | --- | --- |
| Nc1ncnc2c1ncn2[C@@H]1O[C@H](COP(=O)(O)OP(=O)(O)OP(=O)(O)O)[C@@H](O)[C@H]1O [ATP, adenosine 5′-triphosphate] | 364 ± 48 µM | 2 mM | 424 ± 67 µM | 2 mM | – | – | – | – | – | – | – | – | – |
| N=C(N)NC(=O)c1nc(-c2cc3cnccc3o2)c(N2CCCCCC2)nc1N [6-FPHMA, 6-furopyridine-substituted 5-(N,N-hexamethylene) amiloride] | – | – | – | – | 96% | ten-fold less active | 23 ± 2.4 µM | 1.28 ± 0.47 µM | 100% | inhibit | 62 ± 3% | 62 ± 3% | 62 ± 4% |
